Where a name gives a salt, the structure may show the parent alone. Read-outs that look alike come from different tables or passages of the source.
Legend:
[1] = tested on: S. aureus UBMS 88-5 (tetM); experiment: MIC, agar dilution; type: cell-based; conditions: S. aureus UBMS 88-5 TetM; Table IA; unit assumed
[2] = tested on: S. aureus UBMS 88-4 (Sensitive); experiment: MIC, agar dilution; type: cell-based; conditions: S. aureus UBMS 88-4; Table IA; unit assumed
[3] = tested on: S. aureus UBMS 90-1 (tetM); experiment: MIC, agar dilution; type: cell-based; conditions: S. aureus UBMS 90-1 TetM; Table IA; unit assumed
[4] = tested on: S. aureus UBMS 90-2 (tetM); experiment: MIC, agar dilution; type: cell-based; conditions: S. aureus UBMS 90-2 TetM; Table IA; unit assumed
[5] = tested on: S. aureus UBMS 90-3 (Sensitive); experiment: MIC, agar dilution; type: cell-based; conditions: S. aureus UBMS 90-3; Table IA; unit assumed
[6] = tested on: S. aureus UBMS 88-7 (tetK); experiment: MIC, agar dilution; type: cell-based; conditions: S. aureus UBMS 88-7 TetK; Table IA; unit assumed
[7] = tested on: S. aureus IVES 2943 (meth. resistant); experiment: MIC, agar dilution; type: cell-based; conditions: S. aureus IVES 2943; Table IA; unit assumed
[8] = tested on: S. aureus IVES 1983 (meth. resistant); experiment: MIC, agar dilution; type: cell-based; conditions: S. aureus IVES 1983; Table IA; unit assumed
[9] = tested on: S. aureus ATCC 29213 (Sensitive); experiment: MIC, agar dilution; type: cell-based; conditions: S. aureus ATCC 29213; Table IA; unit assumed
[10] = tested on: S. aureus Smith (Sensitive); experiment: MIC, agar dilution; type: cell-based; conditions: S. aureus SMITH (MP); Table IA; unit assumed
[11] = tested on: S. haemolyticus AVAH 88-3; experiment: MIC, agar dilution; type: cell-based; conditions: S. hemolyticus AVHAH 88-3; Table IA; unit assumed
E. faecalis 12201 = experiment: MIC, agar dilution; type: cell-based; conditions: Enterococcus 12201; Table IA; unit assumed
E. faecalis ATCC 29212 = experiment: MIC, agar dilution; type: cell-based; conditions: E. faecalis ATCC 29212; Table IA; unit assumed
E. coli UBMS 88-1 (tetB) = experiment: MIC, agar dilution; type: cell-based; conditions: E. coli UBMS 88-1 TetB; Table IA; unit assumed
E. coli UBMS 89-1 (tetM) = experiment: MIC, agar dilution; type: cell-based; conditions: E. coli UBMS 89-1 TetM; Table IA; unit assumed
[12] = tested on: E. coli UBMS 89-2 (Sensitive); experiment: MIC, agar dilution; type: cell-based; conditions: E. coli UBMS 89-2 Tet Sens.; Table IA; unit assumed
E. coli ATCC 25922 = experiment: MIC, agar dilution; type: cell-based; conditions: E. coli ATCC 25922; Table IA; unit assumed
E. coli UBMS 90-4 (tetM) = experiment: MIC, agar dilution; type: cell-based; conditions: E. coli UBMS 90-4 TetM; Table IA; unit assumed
S. aureus SMITH (sens) [13] = experiment: In vivo antibacterial evaluation, acute lethal infection in mice
Text: In Vivo Antibacterial Evaluation (Table VII)

E. coli J3272 Tet sens. = experiment: MIC, agar dilution (Table IA); type: cell-based; conditions: unit assumed
E. coli MC4100 TetB = experiment: MIC, agar dilution (Table IA); type: cell-based; conditions: unit assumed
E. coli PRP1 TetA = experiment: MIC, agar dilution (Table IA); type: cell-based; conditions: unit assumed
E. coli J3272 TetC = experiment: MIC, agar dilution (Table IA); type: cell-based; conditions: unit assumed
E. coli J2175 = experiment: MIC, agar dilution (Table IA); type: cell-based; conditions: unit assumed
E. coli BAJ9003 = experiment: MIC, agar dilution (Table IA); type: cell-based
E. coli UBMS 90-5 = experiment: MIC, agar dilution (Table IA); type: cell-based; conditions: unit assumed
E. coli #311 (MP) = experiment: MIC, agar dilution (Table IA); type: cell-based; conditions: unit assumed
E. coli J3272 TetD = experiment: MIC, agar dilution (Table IA); type: cell-based; conditions: unit assumed
S. mariescens FDOR 8733 = experiment: MIC, agar dilution (Table IA); type: cell-based; conditions: unit assumed
[14] = tested on: X. maltophilia NEMC 87210; experiment: MIC, agar dilution (Table IA); type: cell-based; conditions: unit assumed
[15] = tested on: Ps. acruginosa ATCC 27853; experiment: MIC, agar dilution (Table IA); type: cell-based; conditions: unit assumed
S. aureus NEMC 8769/89-4 = experiment: MIC, agar dilution (Table IA); type: cell-based
S. aureus ROSE (MP) = experiment: MIC, agar dilution (Table IA); type: cell-based; conditions: unit assumed
S. aureus SMITH (sens) [16] = experiment: In vivo antibacterial evaluation, acute lethal infection in mice; conditions: Intraveneous

CN(C)CC(=O)Nc1cc(N(C)C)c2c(c1O)C(=O)C1=C(O)C3(O)C(=O)C(C(N)=O)=C(O)C(N(C)C)C3CC1C2.O=S(=O)(O)O.O=S(=O)(O)O (stereo not drawn) [JJ, [4S-(4alpha,12aalpha))-4,7-Bis(dimethylamino)-9-([(dimethylamino)acetyl)amino]-1,4,4a,5,5a,6,11,12a-octahydro-3,10,12,12a-tetrahydroxy-1,11-dioxo-2-naphthacenecarboxamide disulfate]
Antibacterial activity (MIC) [1]: 0.25 mg/L | Antibacterial activity (MIC) [2]: 0.25 mg/L | Antibacterial activity (MIC) [3]: 0.25 mg/L | Antibacterial activity (MIC) [4]: 0.25 mg/L | Antibacterial activity (MIC) [5]: 0.12 mg/L | Antibacterial activity (MIC) [6]: 1 mg/L | Antibacterial activity (MIC) [7]: 2 mg/L | Antibacterial activity (MIC) [8]: 2 mg/L | Antibacterial activity (MIC) [9]: 0.03 mg/L | Antibacterial activity (MIC) [10]: 0.12 mg/L | Antibacterial activity (MIC) [11]: 0.25 mg/L | Antibacterial activity (MIC) (E. faecalis 12201): 0.12 mg/L | Antibacterial activity (MIC) (E. faecalis ATCC 29212): 0.12 mg/L | Antibacterial activity (MIC) (E. coli UBMS 88-1 (tetB)): 0.25 mg/L | Antibacterial activity (MIC) (E. coli UBMS 89-1 (tetM)): 0.25 mg/L | Antibacterial activity (MIC) [12]: 0.25 mg/L | Antibacterial activity (MIC) (E. coli ATCC 25922): 0.25 mg/L | Antibacterial activity (MIC) (E. coli UBMS 90-4 (tetM)): 0.25 mg/L | ED50 (S. aureus SMITH (sens) [13]; Oral): 9.6 mg/kg | ED50 (S. aureus SMITH (sens) [13]; Subcutaneous): 0.66 mg/kg | Antibacterial activity (MIC) (E. coli J3272 Tet sens.): 0.25 mg/L | Antibacterial activity (MIC) (E. coli MC4100 TetB): 0.25 mg/L | Antibacterial activity (MIC) (E. coli PRP1 TetA): 2 mg/L | Antibacterial activity (MIC) (E. coli J3272 TetC): 1 mg/L | Antibacterial activity (MIC) (E. coli J2175): 0.25 mg/L | Antibacterial activity (MIC) (E. coli BAJ9003; unit assumed): 0.03 mg/L | Antibacterial activity (MIC) (E. coli UBMS 90-5): 0.25 mg/L | Antibacterial activity (MIC) (E. coli #311 (MP)): 0.25 mg/L | Antibacterial activity (MIC) (E. coli J3272 TetD): 0.12 mg/L | Antibacterial activity (MIC) (S. mariescens FDOR 8733): 4 mg/L | Antibacterial activity (MIC) [14]: 0.5 mg/L | Antibacterial activity (MIC) [15]: 8 mg/L | Antibacterial activity (MIC) (S. aureus NEMC 8769/89-4; unit assumed): 0.06 mg/L | Antibacterial activity (MIC) (S. aureus ROSE (MP)): 2 mg/L | ED50 (S. aureus SMITH (sens) [16]): 0.61 mg/kg

CN(C)c1cc(NC(=O)CN2CCCC2)c(O)c2c1CC1CC3[C@H](N(C)C)C(O)=C(C(N)=O)C(=O)[C@@]3(O)C(O)=C1C2=O (stereo partly drawn) [SS, [7S-(7alpha,10aalpha)]-N-[9-(Aminocarbonyl)-4,7-bis(dimethylamino)-5,5a,6,6a,7,10,10a,12-octahydro-1,8,10a,11-tetrahydroxy-10,12-dioxo-2-naphthacenyl]-1-pyrrolidineacetamide dihydrochloride]
Antibacterial activity (MIC) [2]: 0.12 mg/L | Antibacterial activity (MIC) [3]: 0.12 mg/L | Antibacterial activity (MIC) [4]: 0.12 mg/L | Antibacterial activity (MIC) [5]: 0.12 mg/L | Antibacterial activity (MIC) [6]: 0.5 mg/L | Antibacterial activity (MIC) [7]: 1 mg/L | Antibacterial activity (MIC) [8]: 0.5 mg/L | Antibacterial activity (MIC) [9]: 0.12 mg/L | Antibacterial activity (MIC) [10]: 0.12 mg/L | Antibacterial activity (MIC) [11]: 0.25 mg/L | Antibacterial activity (MIC) (E. faecalis 12201): 0.12 mg/L | Antibacterial activity (MIC) (E. faecalis ATCC 29212): 0.12 mg/L | Antibacterial activity (MIC) (E. coli UBMS 88-1 (tetB)): 0.25 mg/L | Antibacterial activity (MIC) (E. coli UBMS 89-1 (tetM)): 0.12 mg/L | Antibacterial activity (MIC) [12]: 0.25 mg/L | Antibacterial activity (MIC) (E. coli ATCC 25922): 0.25 mg/L | Antibacterial activity (MIC) (E. coli UBMS 90-4 (tetM)): 0.25 mg/L | ED50 (S. aureus SMITH (sens) [13]; Oral): 8 to 16 mg/kg | Antibacterial activity (MIC) (E. coli J3272 Tet sens.): 0.25 mg/L | Antibacterial activity (MIC) (E. coli MC4100 TetB): 0.25 mg/L | Antibacterial activity (MIC) (E. coli PRP1 TetA): 0.5 mg/L | Antibacterial activity (MIC) (E. coli J3272 TetC): 0.25 mg/L | Antibacterial activity (MIC) (E. coli J2175): 0.25 mg/L | Antibacterial activity (MIC) (E. coli BAJ9003): ≦0.015 | Antibacterial activity (MIC) (E. coli UBMS 90-5): 0.25 mg/L | Antibacterial activity (MIC) (E. coli #311 (MP)): 0.12 mg/L | Antibacterial activity (MIC) (E. coli J3272 TetD): 0.12 mg/L | Antibacterial activity (MIC) (S. mariescens FDOR 8733): 2 mg/L | Antibacterial activity (MIC) [14]: 0.5 mg/L | Antibacterial activity (MIC) [15]: 16 mg/L | Antibacterial activity (MIC) (S. aureus NEMC 8769/89-4; unit assumed): 0.03 mg/L | Antibacterial activity (MIC) (S. aureus ROSE (MP)): 1 mg/L | ED50 (S. aureus SMITH (sens) [16]): 1 to 2 mg/kg

CN(C)CC(=O)Nc1cc(N(C)C)c2c(c1O)C(=O)C1=C(O)C3(O)C(=O)C(C(N)=O)=C(O)C(N(C)C)C3CC1C2 (stereo not drawn) [LL, [4S-(4alpha,12aalpha)]-4,7-Bis(dimethylamino)-9-[[(dimethylamino)acetyl]amino]-1,4,4a,5,5a,6,11,12a-octahydro-3,10,12,12a-tetrahydroxy-1,11-dioxo-2-naphthacenecarboxamide]
Antibacterial activity (MIC) [1]: 0.12 mg/L | Antibacterial activity (MIC) [2]: 0.06 mg/L | Antibacterial activity (MIC) [3]: 0.12 mg/L | Antibacterial activity (MIC) [4]: 0.12 mg/L | Antibacterial activity (MIC) [5]: 0.06 mg/L | Antibacterial activity (MIC) [6]: 0.5 mg/L | Antibacterial activity (MIC) [7]: 1 mg/L | Antibacterial activity (MIC) [8]: 1 mg/L | Antibacterial activity (MIC) [9]: 0.06 mg/L | Antibacterial activity (MIC) [10]: 0.06 mg/L | Antibacterial activity (MIC) [11]: 0.12 mg/L | Antibacterial activity (MIC) (E. faecalis 12201): 0.06 mg/L | Antibacterial activity (MIC) (E. faecalis ATCC 29212): 0.06 mg/L | Antibacterial activity (MIC) (E. coli UBMS 88-1 (tetB)): 0.25 mg/L | Antibacterial activity (MIC) (E. coli UBMS 89-1 (tetM)): 0.12 mg/L | Antibacterial activity (MIC) [12]: 0.12 mg/L | Antibacterial activity (MIC) (E. coli ATCC 25922): 0.12 mg/L | Antibacterial activity (MIC) (E. coli UBMS 90-4 (tetM)): 0.25 mg/L | ED50 (S. aureus SMITH (sens) [13]; Oral): 4 to 8 mg/kg | Antibacterial activity (MIC) (E. coli J3272 Tet sens.): 0.12 mg/L | Antibacterial activity (MIC) (E. coli MC4100 TetB): 0.25 mg/L | Antibacterial activity (MIC) (E. coli PRP1 TetA): 1 mg/L | Antibacterial activity (MIC) (E. coli J3272 TetC): 0.5 mg/L | Antibacterial activity (MIC) (E. coli J2175): 0.12 mg/L | Antibacterial activity (MIC) (E. coli UBMS 90-5): 0.12 mg/L | Antibacterial activity (MIC) (E. coli #311 (MP)): 0.12 mg/L | Antibacterial activity (MIC) (E. coli J3272 TetD): 0.06 mg/L | Antibacterial activity (MIC) (S. mariescens FDOR 8733): 2 mg/L | Antibacterial activity (MIC) [14]: 0.25 mg/L | Antibacterial activity (MIC) [15]: 4 mg/L | Antibacterial activity (MIC) (S. aureus NEMC 8769/89-4): ≦0.015 | Antibacterial activity (MIC) (S. aureus ROSE (MP)): 1 mg/L | ED50 (S. aureus SMITH (sens) [16]): 0.25 to 0.5 mg/kg
